Test results reported in patent publication US8575197B2, “Pyrolinone derivative and pharmaceutical composition comprising the same” (Shionogi & Co., Ltd., priority 2008, dated 2013).

molecular target: human P2X3 receptor (Homo sapiens (Human), UniProt P56373); test: P2X3 receptor inhibition, ATP-evoked Fluo-3 calcium fluorescence (FDSS 3000); assay type: cell-based; conditions: C6BU-1 cell transfected with human P2X3 receptor gene; ATP-evoked Fluo-3 fluorescence
Method: Stably expressing cell line (C6BU-1 cell transfected with human P2X3 receptor gene (GenBank accession number Y07683)) was used. The cells were seeded in a 96-well microtiter plate at a concentration of 8000 cells/well and cultured in the medium (8.3% fetal bovine serum, 8.3% horse serum, 1% antibiotic and antifungal in DMEM) for one day at 37° C. under 5% carbon dioxide atmosphere. The medium was replaced with 4 μM Fluo-3-AM solution (pH7.5) containing 20 mM HEPES, 137 mM NaCl, 2.7 mM KCl, 0.9 mM MgCl2, 5.0 mM CaCl2, 5.6 mM D-glucose, 2.5 mM probenecid, 10% BSA, and 0.08% Pluronic F-127, and incubated at 37° C. under 5% dioxide carbon atmosphere for one hour. The plate was washed with washing buffer (20 mM HEPES, 137 mM NaCl, 2.7 mM KCl, 0.9 mM MgCl2, 5.0 mM CaCl2, 5.6 mM D-glucose, 2.5 mM probenecid, pH7.5), and each well was added with 40 μL of this buffer. The plate was placed in High-Throughput Screening System FDSS 3000 (Hamamatsu Photonics K.K.). Measurement of fluorescence intensity by FDSS 3000 was started, and 40 μL of DMSO solutions containing different concentrations of the test compound as prepared by dilution with dilution buffer (20 mM HEPES, 137 mM NaCl, 2.7 mM KCl, 0.9 mM MgCl2, 5.0 mM CaCl2, 5.6 mM D-glucose, 2.5 mM probenecid, 0.1% Pluronic F-127, pH7.5) were dispensed to each well through the built-in automatic dispenser. Five minutes after, 40 nM ATP solution (50 μL) prepared by dilution with the dilution buffer was dispensed through the built-in automatic dispenser, and the measurement of fluorescence intensity was continued for 3 min. For each well, the specific maximum fluorescence intensity was calculated as the ratio of the maximum fluorescence intensity after addition of the ATP solution to the fluorescence intensity at the starting of the measurement. […] FDSS software (Hamamatsu Photonics K.K.) was used for calculation of the specific maximum fluorescence intensity. IC50 was calculated using Microsoft™ Excel™ (Microsoft Corporation) and XLfit™ (ID Business Solutions Ltd.).

human P2X3 receptor, sequence (P56373 whole entry): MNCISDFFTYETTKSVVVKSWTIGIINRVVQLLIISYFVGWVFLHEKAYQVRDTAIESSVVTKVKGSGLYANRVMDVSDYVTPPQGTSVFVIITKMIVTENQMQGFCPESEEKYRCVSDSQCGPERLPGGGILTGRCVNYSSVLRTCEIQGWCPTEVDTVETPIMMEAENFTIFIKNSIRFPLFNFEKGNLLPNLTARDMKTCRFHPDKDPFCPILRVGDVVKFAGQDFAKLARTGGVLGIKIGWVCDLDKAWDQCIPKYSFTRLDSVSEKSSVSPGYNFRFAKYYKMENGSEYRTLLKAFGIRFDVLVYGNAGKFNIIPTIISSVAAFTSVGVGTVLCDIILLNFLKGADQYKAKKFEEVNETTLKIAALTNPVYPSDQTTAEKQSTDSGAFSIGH

Row | IC50 | Structure (SMILES)
1 | 0.091 µM | COc1ncccc1C1c2c(C(C)(C)CO)n[nH]c2C(=O)N1c1ccc(-c2ccco2)cc1 (stereo not drawn) [II-111]
2 | 0.003 µM | COc1ccccc1C1c2c(C(C)(C)CO)n[nH]c2C(=O)N1c1ccc(-c2ccsc2)cc1 (stereo not drawn) [II-217]
3 | 0.07 µM | CSc1ccc(N2C(=O)c3[nH]nc(C(C)(C)C)c3C2c2cccnc2OCCO)cc1 (stereo not drawn) [II-040]
4 | 0.006 µM | CC(C)c1n[nH]c2c1C(c1ccccc1OCCS(C)(=O)=O)N(c1ccc(-c3ccsc3)cc1)C2=O (stereo not drawn) [II-245]
5 | 0.322 µM | COc1ncccc1C1c2c(C(C)(C)C)n[nH]c2C(=O)N1c1ccc(-c2cc(C)no2)cc1 (stereo not drawn) [II-191]
6 | 0.022 µM | COCCOc1ccccc1C1c2c(C(C)(C)C)n[nH]c2C(=O)N1c1ccc(-c2ccon2)cc1 (stereo not drawn) [II-018]
7 | 0.007 µM | COc1ccccc1C1c2c(C(C)(CO)CO)n[nH]c2C(=O)N1c1ccc(-c2ccsc2)cc1 (stereo not drawn) [II-266]
8 | 0.508 µM | COCc1ccccc1C1c2c(C(C)(C)C)n[nH]c2C(=O)N1c1ccc(-c2cc(C)no2)cc1 (stereo not drawn) [II-068]
9 | 0.004 µM | COCCOc1ccccc1C1c2c(C(C)(C)CO)n[nH]c2C(=O)N1c1ccc(-c2ccsc2)cc1 (stereo not drawn) [II-130]
10 | 0.026 µM | CC(C)c1n[nH]c2c1C(c1cccnc1OCC(N)=O)N(c1ccc(-c3ccsc3)cc1)C2=O (stereo not drawn) [II-054]
11 | 0.979 µM | COc1ccc(-c2n[nH]c3c2C(c2ccccc2OC)N(CCc2ccco2)C3=O)cc1 (stereo not drawn) [II-225]
12 | 0.092 µM | CC(C)c1n[nH]c2c1C(c1ccccn1)N(c1ccc(-c3ccsc3)cc1)C2=O (stereo not drawn) [II-233]
13 | 0.031 µM | COc1ccccc1C1c2c(C(C)(C)CO)n[nH]c2C(=O)N1c1ccc(-c2ccco2)cn1 (stereo not drawn) [II-265]
14 | 0.002 µM | CC(C)c1n[nH]c2c1C(c1ccccc1C(=O)NCCO)N(c1ccc(-c3ccsc3)cc1)C2=O (stereo not drawn) [II-091]
15 | 0.148 µM | COc1ccccc1C1c2c(C(C)(C)CO)n[nH]c2C(=O)N1c1ccc(-c2noc(C)n2)cc1 (stereo not drawn) [II-137]
16 | 0.144 µM | COc1ccccc1C1c2c(C(C)C)n[nH]c2C(=O)N1c1ccc(-c2ccsc2)c(N(C)C)c1 (stereo not drawn) [II-244]
17 | 0.216 µM | COC(=O)COCc1ncccc1C1c2c(C(C)(C)C)n[nH]c2C(=O)N1c1ccc(-c2ccsc2)cc1 (stereo not drawn) [II-128]
18 | 0.153 µM | COc1ncccc1C1c2c(C(C)(C)C)n[nH]c2C(=O)N1c1ccc(-c2ccco2)nc1 (stereo not drawn) [II-271]

Further lines, the compound ahead of its results:

Row | Structure (SMILES) | IC50
19 | CC(C)(C)C(=O)C1=C(O)C(=O)N(c2ccc(-c3cccs3)cc2)C1c1cccnc1OCCO (stereo not drawn) [Compound I-172] | 0.024 µM
20 | Cc1ncccc1C1C(C(=O)C(C)(C)C)=C(O)C(=O)N1c1ccc(-c2ccsc2)cc1 (stereo not drawn) [Compound I-143] | 0.331 µM
21 | COc1ccc(C2C(C(=O)C(C)C)=C(O)C(=O)N2c2ccc(-c3ccsc3)cc2)cc1 (stereo not drawn) [Compound I-285] | 0.648 µM
22 | COCCOc1ccccc1C1C(C(=O)CC(C)C)=C(O)C(=O)N1c1ccc(-c2nc(C)no2)cc1 (stereo not drawn) [Compound I-273] | 0.491 µM
23 | Cc1nc(-c2ccc(N3C(=O)C(O)=C(C(=O)CC(C)C)C3c3ccccc3OC(F)F)cc2)no1 (stereo not drawn) [Compound I-318] | 0.328 µM
24 | COCCOc1ccccc1C1C(C(=O)C(C)C)=C(O)C(=O)N1c1ccc(-c2csc(C)n2)cc1 (stereo not drawn) [Compound I-424] | 0.519 µM
25 | COCc1ccccc1C1C(C(=O)C(C)C)=C(O)C(=O)N1c1ccc(C2=CCCC2)cc1 (stereo not drawn) [Compound I-527] | 0.039 µM
26 | CC(C)(C)C(=O)C1=C(O)C(=O)N(c2ccc(-c3ccsc3)cc2)C1c1cccnc1OCCO (stereo not drawn) [Compound I-166] | 0.019 µM
27 | Cc1cc(-c2ccc(N3C(=O)C(O)=C(C(=O)CC(C)C)C3c3ccccc3OC(C)C)cc2)on1 (stereo not drawn) [Compound I-370] | 0.194 µM
28 | CC(C)CC(=O)C1=C(O)C(=O)N(c2ccc(SC(F)(F)F)cc2)C1c1ccccc1OC(C)C (stereo not drawn) [Compound I-447] | 0.128 µM
29 | Cc1cc(-c2ccc(N3C(=O)C(O)=C(C(=O)C(C)C)C3c3ccccc3OCC3OCCO3)cc2)cs1 (stereo not drawn) [Compound I-500] | 0.012 µM
30 | COCCOc1ccccc1C1C(C(=O)CC(C)C)=C(O)C(=O)N1c1ccc(-c2ccc(C)s2)cc1 (stereo not drawn) [Compound I-304] | 0.021 µM
31 | COCCOc1ncccc1C1C(C(=O)C(C)C)=C(O)C(=O)N1c1ccc(-c2noc(C)n2)cc1 (stereo not drawn) [Compound I-174] | 0.572 µM
32 | CNC(=O)COc1ncccc1C1C(C(=O)C(C)C)=C(O)C(=O)N1c1ccc(-c2ccsc2)cc1 (stereo not drawn) [Compound I-199] | 0.019 µM
33 | COc1ccccc1C1C(C(=O)CC(C)(C)C)=C(O)C(=O)N1c1ccc(-c2ccon2)cc1 (stereo not drawn) [Compound I-072] | 0.352 µM
34 | COc1cccc(C2C(C(=O)C(C)C)=C(O)C(=O)N2c2ccc(-c3ccsc3)cc2)c1 (stereo not drawn) [Compound I-284] | 0.3 µM
35 | CCOCOc1ccccc1C1C(C(=O)C(C)C)=C(O)C(=O)N1c1ccc(-c2ccsc2)cc1 (stereo not drawn) [Compound I-544] | 0.008 µM
36 | CC(C)C(=O)C1=C(O)C(=O)N(c2ccc(-c3ccsc3)cc2)C1c1ccccc1OCCN(C)C (stereo not drawn) [Compound I-157] | 0.025 µM
37 | Cc1ccc(-c2ccc(N3C(=O)C(O)=C(C(=O)C(C)C)C3c3ccccc3OC(F)F)cc2)o1 (stereo not drawn) [Compound I-358] | 0.025 µM
38 | COCCNC(=O)c1ncccc1C1C(C(=O)CC(C)C)=C(O)C(=O)N1c1ccc(-c2ccc(C)s2)cc1 (stereo not drawn) [Compound I-581] | 0.466 µM
39 | COc1ccccc1C1C(C(=O)C(C)(C)C)=C(O)C(=O)N1c1ccc(-c2ccoc2)cc1 (stereo not drawn) [Compound I-077] | 0.048 µM
40 | Cc1nc(-c2ccc(N3C(=O)C(O)=C(C(=O)c4cc[nH]c4)C3C3CCCCC3)cc2)no1 (stereo not drawn) [Compound I-555] | 0.579 µM
41 | CC(C)(C)C(=O)C1=C(O)C(=O)N(c2ccc(-c3ccsc3)cc2)C1c1ccccc1OCC(N)=O (stereo not drawn) [Compound I-151] | 0.008 µM

Row | Structure (SMILES) | IC50
42 | CC(C)Oc1ccccc1C1C(C(=O)C(C)C)=C(O)C(=O)N1c1ccc(-c2csnn2)cc1 (stereo not drawn) [Compound I-533] | 0.033 µM
43 | COCCOc1ccccc1C1C(C(=O)CC(C)C)=C(O)C(=O)N1c1ccc(C2=NCCS2)cc1 (stereo not drawn) [Compound I-410] | 0.151 µM
44 | COCCOCc1ncccc1C1C(C(=O)C(C)(C)C)=C(O)C(=O)N1c1ccc(-c2ccsc2)cc1 (stereo not drawn) [Compound I-168] | 0.12 µM
45 | Cc1nc(-c2ccc(N3C(=O)C(O)=C(C(=O)C(C)C)C3c3ccccc3OCCCO)cc2)no1 (stereo not drawn) [Compound I-444] | 0.172 µM
46 | Cc1nc(-c2ccc(N3C(=O)C(O)=C(C(=O)C(C)C)C3c3ccccc3N3CCOCC3)cc2)no1 (stereo not drawn) [Compound I-487] | 0.167 µM
47 | C/N=C1/CC(C)(C)C(=O)OC2=C1C(c1ccccc1OC)N(c1ccc(-c3ccsc3)cc1)C2=O (stereo not drawn) [Compound I-587] | 0.374 µM
48 | CC(C)C(=O)C1=C(O)C(=O)N(c2ccc(-c3ccsc3)cc2)C1c1ccccn1 (stereo not drawn) [Compound I-219] | 0.324 µM
49 | COc1ccc(C(=O)C2=C(O)C(=O)N(c3ccc(-c4cc(C)no4)cc3)C2c2ccccc2OC)cc1 (stereo not drawn) [Compound I-027] | 0.04 µM
50 | COc1ccc(C(=O)C2=C(O)C(=O)N(c3nc4ccc(OC)cc4s3)C2C2CCCCC2)cc1 (stereo not drawn) [Compound I-009] | 0.014 µM
51 | CSc1ccc(N2C(=O)C(O)=C(C(=O)CC(C)C)C2c2ccccc2OC(C)C)cc1 (stereo not drawn) [Compound I-436] | 0.042 µM
52 | Cc1nc(-c2ccc(N3C(=O)C(O)=C(C(=O)C(C)C)C3c3ccccc3OC(F)F)cc2)no1 (stereo not drawn) [Compound I-313] | 0.32 µM
53 | CC(=O)N(C)c1ccccc1C1C(C(=O)C(C)C)=C(O)C(=O)N1c1ccc(-c2ccsc2)cc1 (stereo not drawn) [Compound I-212] | 0.092 µM
54 | COCCOc1ccccc1C1C(C(=O)CC(C)C)=C(O)C(=O)N1c1ccc(-c2ccoc2)cc1 (stereo not drawn) [Compound I-348] | 0.055 µM
55 | COCOc1ccccc1C1C(C(=O)CC(C)C)=C(O)C(=O)N1c1ccc(-c2ccc(C)o2)cc1 (stereo not drawn) [Compound I-382] | 0.006 µM
56 | COCCOc1ccccc1C1C(C(=O)C(C)(C)C)=C(O)C(=O)N1c1ccc(-c2noc(C)n2)cc1 (stereo not drawn) [Compound I-129] | 0.091 µM
57 | CC(C)(C)C(=O)C1=C(O)C(=O)N(c2ccc(-c3ccon3)cc2)C1c1ccccc1OC(F)(F)F (stereo not drawn) [Compound I-019] | 0.132 µM
58 | Cc1cc(-c2ccc(N3C(=O)C(O)=C(C(=O)C(C)C)C3c3ccccc3CC(=O)N3CCCC3)cc2)cs1 (stereo not drawn) [Compound I-526] | 0.219 µM
59 | COCCOc1ccccc1C1C(C(=O)C(C)C)=C(O)C(=O)N1c1ccc(-c2csnn2)cc1 (stereo not drawn) [Compound I-532] | 0.204 µM
60 | COCCOc1ccccc1C1C(C(=O)C(C)C)=C(O)C(=O)N1c1ccc(-c2csc(C)c2)cc1 (stereo not drawn) [Compound I-261] | 0.019 µM
61 | CSc1ccc(N2C(=O)C(O)=C(C(=O)C(C)C)C2c2ccccc2OCC#N)cc1 (stereo not drawn) [Compound I-509] | 0.247 µM
62 | Cc1nc(-c2ccc(N3C(=O)C(O)=C(C(=O)CC(C)C)C3c3ccccc3N3CCOCC3)cc2)no1 (stereo not drawn) [Compound I-488] | 0.067 µM
63 | COCc1ccccc1C1C(C(=O)C(C)C)=C(O)C(=O)N1c1ccc2sc(C)nc2c1 (stereo not drawn) [Compound I-385] | 0.227 µM
